Assay results taken from patent US20250042848A1, “DEUTERATED FUNCTIONALIZED DERIVATIVES OF alpha-ALANINE, IN [sequence] FOR THE TREATMENT OF NEUROLOGICAL DISEASES” (UNIWERSYTET JAGIELLONSKI, priority 2021, published 2025).

How the values were obtained:
Assay type in all cases: in vivo
[1] = test system: psychomotor seizures induced by a 44 mA, 6 Hz stimulus in mice; assay: Psychomotor seizure test 6 Hz (44 mA); conditions: in mg/kg
Protocol: (§1) Initial screening was performed on groups of 4 mice. The mean effective dose (ED50) in a given test and the neurotoxic dose in the rotarod test (TD50) were estimated on the basis of the results obtained on 3-4 groups of animals consisting of 6 animals.
(§2) In the psychomotor seizure test (6 Hz test), seizures were induced by a 32 mA and/or 44 mA electrical stimulus of a frequency of 6 pulses per second. An electrical pulse was generated using an electric shock generator (ECT Unit 57800; Ugo Basile, Gemonio, Italy) and delivered to the animal using corneal electrodes. Before starting the test, the eye surface was gently moistened with a solution of local anesthetic (1% lidocaine solution). The study was conducted 30 minutes/2 hours after intraperitoneal administration of the compounds at various doses. An electrical stimulus was delivered continuously for a period of 3 seconds, followed by observation of the animal for a period of 10 seconds. During the experiment, the number of animals with an episode of psychomotor convulsions was counted: motor inhibition, staggering, maintaining a sitting posture, forelimb clonus, twitching of the vibrissae and Straub-tail were observed (Leclercq, K.; Kaminski, R.M. Epilepsia 2015, 56, 310-318).
(§3) The ED50 (effective dose) and TD50 (toxic dose) values along with the corresponding 95% confidence limits were calculated based on the Litchfield and Wilcoxon method (Litchfield, J.T.; Wilcoxon, F. J. Pharmacol. Exp. Ther. 1949, 96, 99-113). To perform a statistical evaluation of the results in the scPTZ test, one-way ANOVA variance analysis followed by Dunnett's post hoc test were used. The values were considered statistically significant if p<0.05.

[2] = test system: oxaliplatin-induced mechanical allodynia in mice; assay: Oxaliplatin (OXPT)-induced peripheral neuropathy model, von Frey test
Protocol: The reaction was observed before administration and 3 hours (early phase) and 7 days (late phase) after administration of OXPT.
All tests/models were performed based on procedures described in the specialist literature: formalin test (Beirith et al. Eur. J. Pharmacol. 1998, 345, 233-245), capsaicin-induced pain model (Mogilski et al. Pharmacol. Biochem. Behav. 2015, 133, 99-110), oxaliplatin-induced neuropathic pain model-von Frey's test (Sałat et al. Pharmacol. Biochem. Behav. 2014, 122, 173-181), streptozotocin-induced diabetic neuropathic pain model-von Frey's test (Sałat et al. Neuropharmacology 2017, 125, 181-188; Tanabe et al. J. Pharmacol. Sci. 2008, 107, 213-220). The test group consisted of 8-10 animals.

[3] = test system: psychomotor seizures induced by a 32 mA, 6 Hz stimulus in mice; assay: Psychomotor seizure test 6 Hz (32 mA)
Protocol: as §1, §2, §3

[4] = 0.5 h after i.p. administration
[5] = 2.0 h after i.p. administration
[6] = 30 mg/kg, seven days after OXPT (late phase)
[7] = 30 mg/kg, three hours after OXPT (early phase)
[8] = 60 mg/kg, seven days after OXPT (late phase)
[9] = 60 mg/kg, three hours after OXPT (early phase)
[10] = 90 mg/kg, seven days after OXPT (late phase)
[11] = 90 mg/kg, three hours after OXPT (early phase)

Compound: [2H]C1([2H])C(=O)N([C@H](C)C(=O)NCc2ccccc2)C(=O)C1([2H])[2H] [d4-(R)-1, (R)-N-benzyl-2-(2,5-dioxopyrrolidin-1-yl-3,3,4,4-d4) propanamide]
- ED50 6 Hz (44 mA) [1, 4]: 79.2
- ED50 6 Hz (44 mA) [1, 5]: 125.3
- pain threshold (von Frey) [2, 6]: 6.38 ± 0.50 g
- pain threshold, % of baseline [2, 6]: 123.9%
- pain threshold (von Frey) [2, 7]: 5.73 ± 0.40 g
- pain threshold, % of baseline [2, 7]: 111.3%
- pain threshold (von Frey) [2, 8]: 7.34 ± 0.42 g
- pain threshold, % of baseline [2, 8]: 119.2%
- pain threshold (von Frey) [2, 9]: 5.33 ± 0.427 g
- pain threshold, % of baseline [2, 9]: 86.5%
- pain threshold (von Frey) [2, 10]: 7.04 ± 0.31 g
- pain threshold, % of baseline [2, 10]: 110.5%
- pain threshold (von Frey) [2, 11]: 7.23 ± 0.42 g
- pain threshold, % of baseline [2, 11]: 113.5%
- ED50 6 Hz (32 mA) [3, 4]: 18.6 mg/kg
- ED50 6 Hz (32 mA) [3, 5]: 46.4 mg/kg
